In ChEMBL document CHEMBL3297733, “Discovery and optimization of pyrrolo[1,2-a]pyrazinones leads to novel and selective inhibitors of PIM kinases” (Bioorg Med Chem, 2013):

Assays:
[1] = Oral bioavailability in BALB/c mouse at 8.2 mg/kg; format: ADME, organism-based; details: in vivo
[2] = AUC in BALB/c mouse at 8.2 mg/kg, iv; format: ADME, organism-based; parameters: dose 8.2 mg/kg, route intravenous; details: plasma
[3] = Half life in BALB/c mouse at 8.2 mg/kg, iv; format: ADME, organism-based; parameters: dose 8.2 mg/kg, route intravenous; details: in vivo
[4] = Volume of distribution at steady state in BALB/c mouse at 8.2 mg/kg, iv; format: ADME, organism-based; parameters: dose 8.2 mg/kg, route intravenous; details: in vivo, read-out: Vdss
Cytochrome P450 2C9 = Cytochrome P450 2C9 (Homo sapiens, UniProt P11712); test: Inhibition of CYP2C9 (unknown origin); format: ADME
Cytochrome P450 2D6 = Cytochrome P450 2D6 (Homo sapiens, UniProt P10635); test: Inhibition of CYP2D6 (unknown origin); format: ADME
Cytochrome P450 2D6, sequence (P10635 whole entry): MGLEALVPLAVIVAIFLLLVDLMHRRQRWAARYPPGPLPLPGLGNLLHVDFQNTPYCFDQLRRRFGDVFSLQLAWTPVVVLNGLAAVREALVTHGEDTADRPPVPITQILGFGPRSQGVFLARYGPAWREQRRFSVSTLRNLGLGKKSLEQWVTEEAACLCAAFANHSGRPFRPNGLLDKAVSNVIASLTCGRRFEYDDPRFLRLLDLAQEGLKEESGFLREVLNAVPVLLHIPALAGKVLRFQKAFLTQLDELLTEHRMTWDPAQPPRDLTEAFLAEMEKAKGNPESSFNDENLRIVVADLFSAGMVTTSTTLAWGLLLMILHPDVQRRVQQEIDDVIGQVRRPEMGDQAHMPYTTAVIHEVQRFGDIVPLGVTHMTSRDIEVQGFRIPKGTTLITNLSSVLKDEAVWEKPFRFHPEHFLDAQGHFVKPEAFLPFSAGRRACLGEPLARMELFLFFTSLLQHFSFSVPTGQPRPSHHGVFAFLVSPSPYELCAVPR

[5] = Intrinsic clearance in dog hepatocytes; format: ADME, cell-based, Canis lupus familiaris, Hepatocyte; details: read-out: CLH
[6] = Clearance in human hepatocytes; format: ADME, cell-based, Hepatocyte; details: read-out: CLH
[7] = Plasma protein binding in mouse; format: ADME; details: read-out: PPB (converted)
[8] = Plasma protein binding in human; format: ADME, cell-free; details: read-out: PPB (converted)
[9] = Plasma protein binding in rat; format: ADME, cell-free; details: read-out: PPB (converted)
[10] = molecular target: Serine/threonine-protein kinase pim-1 (Mus musculus) (UniProt P06803); test: Inhibition of PIM1 in mouse BA/F3 cells assessed as phosphorylation of BAD at S112 after 24 hrs by Western blotting analysis; format: cell-based; details: BaF3
Serine/threonine-protein kinase pim-1 (Mus musculus), sequence (P06803 whole entry, looked up): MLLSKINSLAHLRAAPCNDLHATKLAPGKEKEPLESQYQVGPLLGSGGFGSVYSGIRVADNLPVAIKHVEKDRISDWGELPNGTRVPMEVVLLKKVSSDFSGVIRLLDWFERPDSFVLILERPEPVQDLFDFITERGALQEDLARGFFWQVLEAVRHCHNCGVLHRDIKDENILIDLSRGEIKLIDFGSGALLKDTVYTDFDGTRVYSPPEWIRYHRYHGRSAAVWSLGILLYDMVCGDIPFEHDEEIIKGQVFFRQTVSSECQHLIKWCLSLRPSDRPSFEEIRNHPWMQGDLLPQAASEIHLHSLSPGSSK

[11] = molecular target: Serine/threonine-protein kinase pim-1 (Mus musculus) (UniProt P06803); test: Inhibition of PIM1 in mouse BA/F3 cells assessed as c-Myc degradation after 24 hrs by Western blotting analysis; format: cell-based; details: BaF3
[12] = Cytotoxicity against human KMS11 cells after 72 hrs by CellTitre-Glo assay; format: functional, cell-based; details: KMS-11, 72 h
[13] = Cytotoxicity against human Capan1 cells after 72 hrs by CellTitre-Glo assay; format: functional, cell-based; details: CAPAN-1, 72 h
[14] = Cytotoxicity against human NCI-H929 cells after 72 hrs by CellTitre-Glo assay; format: functional, cell-based; details: NCI-H929, 72 h
LNCaP = test: Cytotoxicity against human LNCAP cells after 72 hrs by CellTitre-Glo assay; format: functional, cell-based
LP-1 = test: Cytotoxicity against human LP-1 cells after 72 hrs by CellTitre-Glo assay; format: functional, cell-based; details: LP-1, 72 h
[15] = Apparent permeability from apical to basolateral side in human Caco2 cells after 120 mins by LC-MS/MS analysis; details: Caco-2
[16] = Cytotoxicity against mouse BA/F3 cells overexpressing PIM1 after 72 hrs by CellTitre-Glo assay; format: functional, cell-based; details: BaF3, 72 h
[17] = molecular target: Tyrosine-protein kinase ZAP-70 (Homo sapiens, UniProt P43403); test: Inhibition of ZAP70 (unknown origin)
[18] = molecular target: Non-receptor tyrosine-protein kinase TYK2 (Homo sapiens, UniProt P29597); test: Inhibition of TYK2 (unknown origin)
[19] = molecular target: Vascular endothelial growth factor receptor 2 (Homo sapiens, UniProt P35968); test: Inhibition of VEGFR2 (unknown origin)
Vascular endothelial growth factor receptor 2, sequence (P35968 whole entry): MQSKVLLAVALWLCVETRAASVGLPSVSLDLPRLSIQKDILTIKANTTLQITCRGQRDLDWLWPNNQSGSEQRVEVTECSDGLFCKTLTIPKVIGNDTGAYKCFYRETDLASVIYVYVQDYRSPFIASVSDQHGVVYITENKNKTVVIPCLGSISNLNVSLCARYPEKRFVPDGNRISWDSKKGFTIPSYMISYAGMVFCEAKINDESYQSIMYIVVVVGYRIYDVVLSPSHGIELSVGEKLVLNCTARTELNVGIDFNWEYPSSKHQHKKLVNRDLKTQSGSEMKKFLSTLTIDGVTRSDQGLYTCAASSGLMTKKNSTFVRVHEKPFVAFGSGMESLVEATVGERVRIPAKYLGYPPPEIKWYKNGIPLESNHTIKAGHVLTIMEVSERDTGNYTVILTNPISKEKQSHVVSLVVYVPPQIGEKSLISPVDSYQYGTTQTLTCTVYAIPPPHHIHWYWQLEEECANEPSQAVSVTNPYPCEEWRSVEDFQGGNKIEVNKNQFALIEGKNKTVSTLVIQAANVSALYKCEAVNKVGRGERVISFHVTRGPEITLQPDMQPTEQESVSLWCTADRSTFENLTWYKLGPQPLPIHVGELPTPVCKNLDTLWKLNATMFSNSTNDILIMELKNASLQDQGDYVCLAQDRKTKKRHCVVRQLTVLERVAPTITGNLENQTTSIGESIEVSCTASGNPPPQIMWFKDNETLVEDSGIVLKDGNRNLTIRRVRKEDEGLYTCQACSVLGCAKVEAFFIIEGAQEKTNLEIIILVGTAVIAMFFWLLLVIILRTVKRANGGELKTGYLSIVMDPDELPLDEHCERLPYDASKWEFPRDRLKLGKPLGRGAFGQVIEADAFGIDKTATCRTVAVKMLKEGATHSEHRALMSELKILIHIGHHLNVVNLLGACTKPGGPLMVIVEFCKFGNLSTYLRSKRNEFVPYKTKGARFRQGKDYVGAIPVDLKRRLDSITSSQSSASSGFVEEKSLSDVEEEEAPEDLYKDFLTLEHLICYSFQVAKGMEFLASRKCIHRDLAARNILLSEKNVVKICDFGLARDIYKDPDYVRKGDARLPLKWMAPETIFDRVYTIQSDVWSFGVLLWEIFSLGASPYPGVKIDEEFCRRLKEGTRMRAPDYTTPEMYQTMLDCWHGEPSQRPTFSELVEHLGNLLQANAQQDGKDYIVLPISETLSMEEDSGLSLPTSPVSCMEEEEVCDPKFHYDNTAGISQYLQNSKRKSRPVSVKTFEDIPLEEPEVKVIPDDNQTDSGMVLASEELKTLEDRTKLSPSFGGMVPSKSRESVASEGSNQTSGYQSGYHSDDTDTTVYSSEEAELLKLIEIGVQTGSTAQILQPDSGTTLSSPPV

[20] = molecular target: Tyrosine-protein kinase SYK (Homo sapiens, UniProt P43405); test: Inhibition of Syk (unknown origin)
[21] = molecular target: High affinity nerve growth factor receptor (Homo sapiens, UniProt P04629); test: Inhibition of TRKA (unknown origin)
[22] = molecular target: Proto-oncogene tyrosine-protein kinase ROS (Homo sapiens, UniProt P08922); test: Inhibition of ROS1 (unknown origin)
[23] = molecular target: Serine/threonine-protein kinase PLK1 (Homo sapiens, UniProt P53350); test: Inhibition of PLK1 (unknown origin)
[24] = molecular target: Eukaryotic translation initiation factor 2-alpha kinase 3 (Homo sapiens, UniProt Q9NZJ5); test: Inhibition of PERK (unknown origin)
[25] = Inhibition of PKA-alpha (unknown origin); parameters: species or system Homo sapiens
[26] = molecular target: Serine/threonine-protein kinase PAK 4 (Homo sapiens, UniProt O96013); test: Inhibition of PAK4 (unknown origin)
[27] = molecular target: Serine/threonine-protein kinase 26 (Homo sapiens, UniProt Q9P289); test: Inhibition of MST4 (unknown origin)
[28] = molecular target: MAP kinase-interacting serine/threonine-protein kinase 2 (Homo sapiens, UniProt Q9HBH9); test: Inhibition of MNK2 (unknown origin)
[29] = molecular target: Hepatocyte growth factor receptor (Homo sapiens, UniProt P08581); test: Inhibition of c-MET (unknown origin)
[30] = molecular target: Tyrosine-protein kinase Lck (Homo sapiens, UniProt P06239); test: Inhibition of LCK (unknown origin)
[31] = molecular target: Tyrosine-protein kinase JAK1 (Homo sapiens, UniProt P23458); test: Inhibition of JAK1 (unknown origin)
[32] = molecular target: Tyrosine-protein kinase JAK2 (Homo sapiens, UniProt O60674); test: Inhibition of JAK2 (unknown origin)
[33] = molecular target: Inhibitor of nuclear factor kappa-B kinase subunit beta (Homo sapiens, UniProt O14920); test: Inhibition of IKK2 (unknown origin)
Inhibitor of nuclear factor kappa-B kinase subunit beta, sequence (O14920 whole entry): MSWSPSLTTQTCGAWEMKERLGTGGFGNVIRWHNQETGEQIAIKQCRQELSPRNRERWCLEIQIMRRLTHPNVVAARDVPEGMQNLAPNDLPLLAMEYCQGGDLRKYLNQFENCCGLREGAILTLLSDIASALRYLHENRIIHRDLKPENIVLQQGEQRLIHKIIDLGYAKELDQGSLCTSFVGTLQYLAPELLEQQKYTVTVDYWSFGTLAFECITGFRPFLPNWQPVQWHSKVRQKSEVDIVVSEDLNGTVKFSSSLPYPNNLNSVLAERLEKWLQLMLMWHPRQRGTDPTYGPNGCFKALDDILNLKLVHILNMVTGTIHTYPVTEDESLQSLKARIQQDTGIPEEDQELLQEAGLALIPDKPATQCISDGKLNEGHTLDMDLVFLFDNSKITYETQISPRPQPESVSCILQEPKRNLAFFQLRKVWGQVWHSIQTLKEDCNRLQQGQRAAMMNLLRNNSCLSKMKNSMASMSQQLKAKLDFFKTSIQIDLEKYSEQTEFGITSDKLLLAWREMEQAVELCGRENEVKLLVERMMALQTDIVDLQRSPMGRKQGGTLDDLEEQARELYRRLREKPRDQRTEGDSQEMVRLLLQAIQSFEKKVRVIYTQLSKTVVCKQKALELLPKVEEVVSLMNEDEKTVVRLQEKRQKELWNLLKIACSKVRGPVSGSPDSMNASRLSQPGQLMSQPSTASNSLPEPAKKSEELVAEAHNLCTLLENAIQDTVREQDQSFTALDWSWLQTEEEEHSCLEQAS

[34] = molecular target: Serine/threonine-protein kinase haspin (Homo sapiens, UniProt Q8TF76); test: Inhibition of haspin (unknown origin)
[35] = molecular target: Receptor-type tyrosine-protein kinase FLT3 (Homo sapiens, UniProt P36888); test: Inhibition of FLT3 (unknown origin)
[36] = molecular target: Glycogen synthase kinase-3 beta (Homo sapiens, UniProt P49841); test: Inhibition of GSK3beta (unknown origin)
[37] = molecular target: Fibroblast growth factor receptor 1 (Homo sapiens, UniProt P11362); test: Inhibition of FGFR1 (unknown origin)
Focal adhesion kinase 1 = Focal adhesion kinase 1 (Homo sapiens, UniProt Q05397); test: Inhibition of FAK (unknown origin)
[38] = molecular target: Epidermal growth factor receptor (Homo sapiens, UniProt P00533); test: Inhibition of EGFR1 (unknown origin)
[39] = molecular target: Protein-tyrosine kinase 6 (Homo sapiens, UniProt Q13882); test: Inhibition of BRK (unknown origin)
Protein-tyrosine kinase 6, sequence (Q13882 whole entry): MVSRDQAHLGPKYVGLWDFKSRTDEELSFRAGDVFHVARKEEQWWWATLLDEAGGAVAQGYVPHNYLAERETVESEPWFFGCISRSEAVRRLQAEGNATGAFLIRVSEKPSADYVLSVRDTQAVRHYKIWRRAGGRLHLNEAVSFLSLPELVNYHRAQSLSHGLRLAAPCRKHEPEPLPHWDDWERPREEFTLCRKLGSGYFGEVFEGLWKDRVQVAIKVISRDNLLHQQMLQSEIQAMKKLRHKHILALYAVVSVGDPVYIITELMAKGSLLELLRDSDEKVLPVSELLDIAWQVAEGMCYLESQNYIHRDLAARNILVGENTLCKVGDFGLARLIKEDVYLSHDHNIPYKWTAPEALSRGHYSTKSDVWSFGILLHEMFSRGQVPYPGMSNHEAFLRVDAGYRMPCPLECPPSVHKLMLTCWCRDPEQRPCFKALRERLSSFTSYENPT

[40] = molecular target: CDC7/DBF4 (Cell division cycle 7-related protein kinase/Activator of S phase kinase) (Homo sapiens, UniProt O00311); test: Inhibition of CDC7/DBF4 (unknown origin); format: protein-complex assay
CDC7/DBF4 (Cell division cycle 7-related protein kinase/Activator of S phase kinase), sequence (Q9UBU7 whole entry): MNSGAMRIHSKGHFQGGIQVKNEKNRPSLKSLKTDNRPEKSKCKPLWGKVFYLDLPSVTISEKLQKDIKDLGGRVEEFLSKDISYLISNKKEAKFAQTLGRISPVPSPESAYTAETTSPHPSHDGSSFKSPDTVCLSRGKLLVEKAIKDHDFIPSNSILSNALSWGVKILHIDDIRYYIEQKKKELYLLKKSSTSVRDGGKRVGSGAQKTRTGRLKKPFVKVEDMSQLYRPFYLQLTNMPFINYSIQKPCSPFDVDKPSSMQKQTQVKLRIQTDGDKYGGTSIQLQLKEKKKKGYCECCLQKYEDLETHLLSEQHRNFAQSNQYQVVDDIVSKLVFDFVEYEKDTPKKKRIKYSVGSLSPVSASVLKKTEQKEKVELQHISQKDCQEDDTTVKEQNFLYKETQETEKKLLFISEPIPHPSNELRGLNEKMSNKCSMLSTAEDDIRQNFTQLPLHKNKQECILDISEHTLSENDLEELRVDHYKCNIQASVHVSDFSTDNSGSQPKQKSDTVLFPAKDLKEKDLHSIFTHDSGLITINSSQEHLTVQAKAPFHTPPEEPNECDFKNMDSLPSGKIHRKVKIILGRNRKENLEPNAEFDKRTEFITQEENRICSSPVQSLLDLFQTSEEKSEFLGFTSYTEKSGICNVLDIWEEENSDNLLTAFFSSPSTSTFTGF
CDC7/DBF4 (Cell division cycle 7-related protein kinase/Activator of S phase kinase), sequence (O00311 whole entry): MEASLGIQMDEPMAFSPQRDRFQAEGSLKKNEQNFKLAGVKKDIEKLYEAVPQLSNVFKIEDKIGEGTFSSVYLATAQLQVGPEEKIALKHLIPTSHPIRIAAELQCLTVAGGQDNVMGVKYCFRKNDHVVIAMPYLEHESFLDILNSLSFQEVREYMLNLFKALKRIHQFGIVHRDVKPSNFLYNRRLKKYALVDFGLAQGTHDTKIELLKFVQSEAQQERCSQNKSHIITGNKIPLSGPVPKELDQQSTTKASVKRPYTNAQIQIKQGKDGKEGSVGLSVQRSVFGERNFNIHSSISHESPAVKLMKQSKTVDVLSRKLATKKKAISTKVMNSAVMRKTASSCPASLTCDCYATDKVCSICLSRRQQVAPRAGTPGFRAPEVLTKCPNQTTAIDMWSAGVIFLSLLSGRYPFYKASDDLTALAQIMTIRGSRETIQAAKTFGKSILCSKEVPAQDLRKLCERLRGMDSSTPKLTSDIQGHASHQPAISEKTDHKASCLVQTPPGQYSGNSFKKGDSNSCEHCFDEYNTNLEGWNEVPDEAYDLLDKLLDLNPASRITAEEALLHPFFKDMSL

Aurora kinase B = Aurora kinase B (Homo sapiens, UniProt Q96GD4); test: Inhibition of aurora kinase 2 (unknown origin)
[41] = molecular target: Mitotic checkpoint serine/threonine-protein kinase BUB1 (Homo sapiens, UniProt O43683); test: Inhibition of BUB1 (unknown origin)
Aurora kinase A = Aurora kinase A (Homo sapiens, UniProt O14965); test: Inhibition of aurora kinase 1 (unknown origin)
Aurora kinase A, sequence (O14965 whole entry): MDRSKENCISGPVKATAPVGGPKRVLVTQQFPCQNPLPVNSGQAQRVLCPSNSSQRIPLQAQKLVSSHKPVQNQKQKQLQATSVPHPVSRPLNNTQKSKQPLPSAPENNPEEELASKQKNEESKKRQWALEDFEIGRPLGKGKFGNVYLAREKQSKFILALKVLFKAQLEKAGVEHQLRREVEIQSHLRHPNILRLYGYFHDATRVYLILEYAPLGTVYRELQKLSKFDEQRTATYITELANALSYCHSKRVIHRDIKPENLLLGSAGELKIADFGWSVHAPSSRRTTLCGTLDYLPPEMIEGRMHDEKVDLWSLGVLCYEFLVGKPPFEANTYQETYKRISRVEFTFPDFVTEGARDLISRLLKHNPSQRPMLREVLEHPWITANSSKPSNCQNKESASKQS

[42] = molecular target: ALK tyrosine kinase receptor (Homo sapiens, UniProt Q9UM73); test: Inhibition of ALK (unknown origin)
[43] = molecular target: Tyrosine-protein kinase ABL1 (Homo sapiens, UniProt P00519); test: Inhibition of Bcr-ABL (unknown origin)
Activated CDC42 kinase 1 = Activated CDC42 kinase 1 (Homo sapiens, UniProt Q07912); test: Inhibition of ACK1 (unknown origin)
[44] = molecular target: Serine/threonine-protein kinase pim-1 (Homo sapiens, UniProt P11309); test: Inhibition of human PIM1 using ARK-RERTYSFGHHA as substrate incubated for 60 mins prior to substrate addition by topcount scintillation counting analysis in presence of [P33gamma]-ATP
[45] = Half life in BALB/c mouse at 8.2 mg/kg, po; format: ADME, organism-based; parameters: dose 8.2 mg/kg, route oral; details: in vivo

CN1CCN(C[C@@H](NC(=O)C[C@H]2CNC(=O)c3cc(-c4cccc(Cl)c4)cn32)C2CCCCC2)CC1 showed a bioavailability [1] of 0.65%, an AUC [2] of 8.75 µM·h and a half-life [3] of 13.6 h. It also gave a Vd [4] of 11.3 L/kg, an IC50 (Cytochrome P450 2C9) greater than 10 µM and an IC50 (Cytochrome P450 2D6) greater than 10 µM. The CLint scaled [5] was 11 mL/min/kg, the CLint scaled [6] was 5.9 mL/min/kg and the fraction unbound [7] was 0.02. The fraction unbound [8] was 0.03, the fraction unbound [9] was 0.036 and the inhibition [10] was “Dose-dependent effect”. The inhibition [11] was “Dose-dependent effect”, the IC50 [12] was 7.13 µM and the IC50 [13] was 3.7 µM. It also gave an IC50 [14] of 5.93 µM, an IC50 (LNCaP) of 3.31 µM and an IC50 (LP-1) of 1.93 µM. The Papp A→B at 2 h [15] was 8.4 ×10⁻⁶ cm/s, the IC50 [16] was 0.125 µM and the IC50 [17] was greater than 10 µM. The IC50 [18] was greater than 10 µM, the IC50 [19] was greater than 10 µM and the IC50 [20] was greater than 10 µM. It also gave an IC50 [21] greater than 10 µM, an IC50 [22] greater than 10 µM and an IC50 [23] greater than 10 µM. For the same molecule, the IC50 [24] was greater than 10 µM, the IC50 [25] was greater than 10 µM and the IC50 [26] was greater than 10 µM. It also gave an IC50 [27] greater than 10 µM, an IC50 [28] greater than 10 µM and an IC50 [29] greater than 10 µM. It also gave an IC50 [30] greater than 10 µM, an IC50 [31] greater than 10 µM and an IC50 [32] greater than 10 µM. It also gave an IC50 [33] greater than 10 µM, an IC50 [34] greater than 10 µM and an IC50 [35] greater than 10 µM. It also gave an IC50 [36] greater than 10 µM, an IC50 [37] greater than 10 µM and an IC50 (Focal adhesion kinase 1) greater than 10 µM. It also gave an IC50 [38] greater than 10 µM, an IC50 [39] greater than 10 µM and an IC50 [40] greater than 10 µM. For the same molecule, the IC50 (Aurora kinase B) was greater than 10 µM, the IC50 [41] was greater than 10 µM and the IC50 (Aurora kinase A) was greater than 10 µM. For the same molecule, the IC50 [42] was greater than 10 µM, the IC50 [43] was greater than 10 µM and the IC50 (Activated CDC42 kinase 1) was greater than 10 µM. For the same molecule, the IC50 [44] was 0.03 µM and the half-life [45] was 1.25 h.
